Results: US20030232419A1, “Molecules interacting with CASL (MICAL) polynucleotides, polypeptides, and methods of using the same” (priority 2002, published 2003)

How the values were obtained:
phenol sulfotransferase = details: similar concentrations of EGCG; cited from earlier work
[1] = biological target: T1, NADPH-cytochrome P450 reductase (Homo sapiens, UniProt P16435); details: similar concentrations of EGCG; cited from earlier work
T1 sequence (P16435 1-677): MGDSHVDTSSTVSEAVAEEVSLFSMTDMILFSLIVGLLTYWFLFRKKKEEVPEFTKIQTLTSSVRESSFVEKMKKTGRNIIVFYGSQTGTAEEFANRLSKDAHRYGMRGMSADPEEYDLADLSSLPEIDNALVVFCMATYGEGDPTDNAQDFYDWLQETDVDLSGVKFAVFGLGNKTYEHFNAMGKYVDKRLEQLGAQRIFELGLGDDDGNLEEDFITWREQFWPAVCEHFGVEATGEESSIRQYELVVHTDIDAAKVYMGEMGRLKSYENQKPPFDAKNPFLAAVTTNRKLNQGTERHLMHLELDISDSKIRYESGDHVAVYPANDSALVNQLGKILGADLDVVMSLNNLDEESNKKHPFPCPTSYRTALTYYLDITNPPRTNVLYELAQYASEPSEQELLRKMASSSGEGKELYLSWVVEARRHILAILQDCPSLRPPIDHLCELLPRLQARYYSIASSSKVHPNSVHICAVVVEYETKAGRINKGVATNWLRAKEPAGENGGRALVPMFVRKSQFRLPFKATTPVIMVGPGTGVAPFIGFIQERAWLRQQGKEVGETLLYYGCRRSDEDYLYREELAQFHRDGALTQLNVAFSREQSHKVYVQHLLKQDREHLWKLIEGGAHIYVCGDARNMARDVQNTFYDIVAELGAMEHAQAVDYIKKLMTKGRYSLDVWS

[2] = test system: Sema3A-mediated growth cone collapse in NGF-dependent DRG neurons; assay: DRG growth cone collapse assay with AP-Sema3A; assay type: cell-based, rat; details: 25 mM EGCG, 3 hours in EGCG prior to 1 hour 1 nM AP-Sema3A
Description: FIG. 4C provides a graph that quantitates the effects of oxidation/reduction enzyme inhibitors on Sema 3A repulsion scored as the ratio of the axon lengths on the proximal and distal sides of the explant (P/D ratio), and on Sema3A-mediated growth cone collapse indicated as % collapsed growth cones (gray). In repulsion assays, outgrowth of DRG axons on the side distal to the 293 cells appeared normal. […] For Rote, n=4, however only 4 out of 12 explants survived. (**=p<0.0001; *=p<0.001; paired t-test). Scale bar=[…].
(§1) Scoring was done by splitting explants into quadrants and scoring all growth cones as either collapsed or not-collapsed.

steroid 5a-reductase = details: similar concentrations of EGCG; cited from earlier work
[3] = test system: Sema3A-mediated axonal repulsion of NGF-dependent DRG axons; assay: in vitro rat DRG growth cone repulsion assay using Sema 3A-secreting 293 cells; assay type: cell-based; details: for attenuation of Sema 3A mediated axonal repulsion: inhibitors of other redox enzymes at concentrations previously shown to be effective in cell culture conditions
Method: FIG. 4A provides a schematic diagram of the rat D E14/15 Rat DRG explants were co-cultured with 293 cells expressing Sema 3A and grown for 48 hours in the presence of an inhibitor or vehicle. Axonal outgrowth was determined by measuring proximal (P) and distal (D) axon lengths.
DRG repulsion assays were performed as described (Messersmith et al., 1995).
as §1

[4] = biological target: p-hydroxybenzoate hydroxylase (pHBH) (Pseudomonas aeruginosa, UniProt P20586); details: cited from earlier work
telomerase = telomerase (Homo sapiens, UniProt O14746); details: similar concentrations of EGCG; cited from earlier work
[5] = biological target: matrix metalloproteinase MMP-9 (Homo sapiens, UniProt P14780); details: similar concentrations of EGCG; cited from earlier work
[6] = biological target: T2, Drosophila MICAL (endogenous protein in embryo lysates) (Drosophila, UniProt Q86BA1 1-4723); assay: co-immunoprecipitation from embryo lysates with MICAL-CT antibodies, Western blot
T2 construct: also called "large" MICAL isoform; long isoform
T2 sequence (Q86BA1 other isoform, or with tags, fused parts or gaps limits assumed): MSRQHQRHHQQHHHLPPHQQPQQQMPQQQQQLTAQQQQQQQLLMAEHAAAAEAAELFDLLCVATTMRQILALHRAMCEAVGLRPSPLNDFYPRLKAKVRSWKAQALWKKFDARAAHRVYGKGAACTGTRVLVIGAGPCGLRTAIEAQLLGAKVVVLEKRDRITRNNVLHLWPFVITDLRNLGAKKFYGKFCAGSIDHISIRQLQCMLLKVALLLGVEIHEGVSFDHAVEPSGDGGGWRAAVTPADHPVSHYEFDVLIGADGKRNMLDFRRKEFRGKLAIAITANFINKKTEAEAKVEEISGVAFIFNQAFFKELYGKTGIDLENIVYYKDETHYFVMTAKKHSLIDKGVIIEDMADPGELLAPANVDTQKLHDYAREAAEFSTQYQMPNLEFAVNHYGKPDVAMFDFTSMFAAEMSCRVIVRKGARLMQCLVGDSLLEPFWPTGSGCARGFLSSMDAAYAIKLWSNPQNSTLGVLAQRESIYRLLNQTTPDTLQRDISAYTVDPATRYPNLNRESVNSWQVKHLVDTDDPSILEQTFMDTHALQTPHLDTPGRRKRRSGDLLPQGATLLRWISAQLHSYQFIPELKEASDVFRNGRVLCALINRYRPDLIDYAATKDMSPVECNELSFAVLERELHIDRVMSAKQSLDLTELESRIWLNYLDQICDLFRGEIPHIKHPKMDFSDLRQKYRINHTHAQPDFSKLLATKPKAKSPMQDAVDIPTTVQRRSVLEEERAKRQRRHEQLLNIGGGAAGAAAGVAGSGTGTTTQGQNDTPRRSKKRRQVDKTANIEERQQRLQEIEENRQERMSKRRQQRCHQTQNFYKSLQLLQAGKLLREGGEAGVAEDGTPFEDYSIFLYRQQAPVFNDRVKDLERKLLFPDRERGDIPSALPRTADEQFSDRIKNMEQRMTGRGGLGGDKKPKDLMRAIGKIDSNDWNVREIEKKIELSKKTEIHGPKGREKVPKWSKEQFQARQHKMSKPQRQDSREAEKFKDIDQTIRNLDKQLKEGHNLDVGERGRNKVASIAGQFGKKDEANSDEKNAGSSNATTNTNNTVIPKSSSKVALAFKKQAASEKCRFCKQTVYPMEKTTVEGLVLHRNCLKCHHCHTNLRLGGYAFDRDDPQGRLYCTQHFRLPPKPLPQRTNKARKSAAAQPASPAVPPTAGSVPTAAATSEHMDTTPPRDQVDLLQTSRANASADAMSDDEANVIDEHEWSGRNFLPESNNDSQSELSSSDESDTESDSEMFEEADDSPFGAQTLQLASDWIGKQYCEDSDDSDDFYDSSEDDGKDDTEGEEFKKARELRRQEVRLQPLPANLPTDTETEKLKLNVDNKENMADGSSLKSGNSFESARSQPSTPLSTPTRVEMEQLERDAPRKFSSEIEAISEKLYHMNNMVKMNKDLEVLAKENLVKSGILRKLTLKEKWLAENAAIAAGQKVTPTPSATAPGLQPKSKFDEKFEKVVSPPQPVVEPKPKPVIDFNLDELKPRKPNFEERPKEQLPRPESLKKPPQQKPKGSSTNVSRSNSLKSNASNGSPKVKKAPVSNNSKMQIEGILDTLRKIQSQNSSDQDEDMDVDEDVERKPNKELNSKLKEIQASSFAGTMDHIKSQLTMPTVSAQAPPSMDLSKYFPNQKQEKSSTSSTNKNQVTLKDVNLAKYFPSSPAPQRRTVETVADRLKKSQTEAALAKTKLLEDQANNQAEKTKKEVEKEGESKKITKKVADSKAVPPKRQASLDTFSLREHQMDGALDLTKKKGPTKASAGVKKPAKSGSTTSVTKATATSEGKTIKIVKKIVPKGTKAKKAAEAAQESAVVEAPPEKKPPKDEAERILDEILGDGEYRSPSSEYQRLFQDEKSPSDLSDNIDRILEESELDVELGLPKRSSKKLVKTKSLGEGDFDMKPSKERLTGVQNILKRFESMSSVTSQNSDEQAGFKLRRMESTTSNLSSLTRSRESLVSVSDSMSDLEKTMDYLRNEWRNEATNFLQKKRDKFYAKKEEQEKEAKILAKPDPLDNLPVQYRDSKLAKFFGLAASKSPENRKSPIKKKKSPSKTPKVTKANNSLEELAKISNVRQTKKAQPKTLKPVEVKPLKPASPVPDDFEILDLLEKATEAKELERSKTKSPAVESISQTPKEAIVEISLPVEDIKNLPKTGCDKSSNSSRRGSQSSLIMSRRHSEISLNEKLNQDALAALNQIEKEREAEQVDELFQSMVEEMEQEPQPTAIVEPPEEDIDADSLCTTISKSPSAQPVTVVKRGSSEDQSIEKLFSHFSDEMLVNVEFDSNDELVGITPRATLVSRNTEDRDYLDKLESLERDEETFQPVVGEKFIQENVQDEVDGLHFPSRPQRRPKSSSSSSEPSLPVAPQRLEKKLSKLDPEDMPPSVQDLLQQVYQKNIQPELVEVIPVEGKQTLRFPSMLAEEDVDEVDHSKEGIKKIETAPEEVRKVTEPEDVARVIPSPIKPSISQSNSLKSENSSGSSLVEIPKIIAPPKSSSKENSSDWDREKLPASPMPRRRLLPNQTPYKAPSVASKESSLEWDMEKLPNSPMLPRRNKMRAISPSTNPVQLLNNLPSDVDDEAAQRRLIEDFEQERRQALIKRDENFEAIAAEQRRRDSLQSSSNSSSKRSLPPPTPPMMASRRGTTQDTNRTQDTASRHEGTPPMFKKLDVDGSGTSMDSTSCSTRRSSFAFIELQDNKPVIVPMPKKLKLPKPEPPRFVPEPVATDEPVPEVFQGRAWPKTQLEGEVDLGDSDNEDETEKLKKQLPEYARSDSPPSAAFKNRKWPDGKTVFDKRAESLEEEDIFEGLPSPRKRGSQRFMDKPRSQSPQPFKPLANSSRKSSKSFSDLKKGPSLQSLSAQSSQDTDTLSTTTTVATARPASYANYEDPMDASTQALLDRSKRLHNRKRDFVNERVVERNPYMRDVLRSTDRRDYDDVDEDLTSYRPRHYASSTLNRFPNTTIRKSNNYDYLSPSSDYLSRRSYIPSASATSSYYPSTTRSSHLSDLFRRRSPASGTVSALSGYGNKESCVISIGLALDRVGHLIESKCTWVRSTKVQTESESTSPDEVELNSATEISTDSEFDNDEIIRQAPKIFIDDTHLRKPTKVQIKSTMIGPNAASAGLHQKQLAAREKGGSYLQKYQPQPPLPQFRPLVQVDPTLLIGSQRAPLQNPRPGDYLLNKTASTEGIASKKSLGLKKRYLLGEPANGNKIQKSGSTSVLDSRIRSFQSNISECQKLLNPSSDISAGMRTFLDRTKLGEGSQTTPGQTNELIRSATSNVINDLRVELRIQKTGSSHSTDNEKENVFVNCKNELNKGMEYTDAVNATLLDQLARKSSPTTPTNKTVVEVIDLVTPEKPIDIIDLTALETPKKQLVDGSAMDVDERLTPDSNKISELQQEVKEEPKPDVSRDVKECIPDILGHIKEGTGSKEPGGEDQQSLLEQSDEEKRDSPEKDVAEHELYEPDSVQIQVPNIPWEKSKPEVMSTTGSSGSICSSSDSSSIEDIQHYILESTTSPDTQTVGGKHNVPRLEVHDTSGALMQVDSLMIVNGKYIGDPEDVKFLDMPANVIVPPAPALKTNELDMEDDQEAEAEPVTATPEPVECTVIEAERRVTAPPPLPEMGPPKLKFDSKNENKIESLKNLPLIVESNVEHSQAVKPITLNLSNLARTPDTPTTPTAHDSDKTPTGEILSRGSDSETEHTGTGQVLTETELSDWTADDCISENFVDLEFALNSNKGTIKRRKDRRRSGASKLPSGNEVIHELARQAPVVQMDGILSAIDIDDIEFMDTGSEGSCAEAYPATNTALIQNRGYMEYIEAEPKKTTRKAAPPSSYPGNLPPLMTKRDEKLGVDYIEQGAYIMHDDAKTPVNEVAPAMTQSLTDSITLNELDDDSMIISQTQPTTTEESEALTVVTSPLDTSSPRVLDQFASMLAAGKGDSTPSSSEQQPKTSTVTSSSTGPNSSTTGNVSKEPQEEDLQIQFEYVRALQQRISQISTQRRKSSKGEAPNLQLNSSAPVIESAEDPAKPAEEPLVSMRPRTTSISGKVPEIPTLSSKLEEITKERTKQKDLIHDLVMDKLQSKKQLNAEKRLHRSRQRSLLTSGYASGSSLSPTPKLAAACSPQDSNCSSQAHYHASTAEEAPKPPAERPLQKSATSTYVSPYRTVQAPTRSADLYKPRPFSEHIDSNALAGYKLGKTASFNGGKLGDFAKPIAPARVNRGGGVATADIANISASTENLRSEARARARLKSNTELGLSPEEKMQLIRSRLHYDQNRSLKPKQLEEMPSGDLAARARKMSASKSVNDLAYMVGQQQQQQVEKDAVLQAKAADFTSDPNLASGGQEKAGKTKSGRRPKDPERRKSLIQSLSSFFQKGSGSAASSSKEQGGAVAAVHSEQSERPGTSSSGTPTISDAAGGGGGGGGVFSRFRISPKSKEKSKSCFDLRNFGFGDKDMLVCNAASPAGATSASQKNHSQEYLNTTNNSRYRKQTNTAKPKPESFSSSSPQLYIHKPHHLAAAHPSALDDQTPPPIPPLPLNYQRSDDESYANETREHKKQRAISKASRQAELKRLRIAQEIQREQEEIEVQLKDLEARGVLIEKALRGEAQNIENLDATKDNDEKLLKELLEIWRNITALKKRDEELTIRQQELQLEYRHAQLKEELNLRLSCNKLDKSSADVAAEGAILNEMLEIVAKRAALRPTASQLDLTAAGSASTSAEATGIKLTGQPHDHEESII

Sequence of p-hydroxybenzoate hydroxylase (pHBH) (P20586 whole entry): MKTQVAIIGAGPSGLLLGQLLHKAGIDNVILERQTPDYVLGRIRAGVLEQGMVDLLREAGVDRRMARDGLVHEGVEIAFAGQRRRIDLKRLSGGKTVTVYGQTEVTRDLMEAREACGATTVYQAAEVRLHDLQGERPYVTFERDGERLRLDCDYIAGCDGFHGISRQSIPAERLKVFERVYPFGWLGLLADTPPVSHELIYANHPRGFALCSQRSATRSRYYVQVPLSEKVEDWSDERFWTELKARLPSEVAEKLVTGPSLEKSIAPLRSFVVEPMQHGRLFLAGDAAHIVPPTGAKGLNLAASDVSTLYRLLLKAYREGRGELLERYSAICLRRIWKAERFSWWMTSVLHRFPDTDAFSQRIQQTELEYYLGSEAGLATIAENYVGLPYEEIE

Molecule: (−)-epigallocatechin gallate [EGCG]
- inhibition of phenol sulfotransferase (phenol sulfotransferase): inhibit
- inhibition of NADPH-cytochrome P450 reductase [1]: inhibit
- Sema3A-mediated growth cone collapse [2]: dramatically abrogates
- inhibition of steroid 5a-reductase (steroid 5a-reductase): inhibit
- Sema3A repulsion ([3]; 25 mM EGCG added to the growth media, E14/15 rat DRG explants co-cultured with Sema 3A 293 cells for 48 hours): completely neutralized
- inhibition of p-hydroxybenzoate hydroxylase (pHBH) [4]: potent and selective inhibitors
- inhibition of telomerase (telomerase): inhibit
- inhibition of MMP-9 [5]: inhibit

Molecule: Oc1ncnc2[nH]ncc12 [allopurinol]
- attenuation of Sema 3A mediated axonal repulsion [3]: No attenuation

Molecule: C=C(C)[C@H]1Cc2c(ccc3c2O[C@@H]2COc4cc(OC)c(OC)cc4[C@@H]2C3=O)O1 [rotenone]
- attenuation of Sema 3A mediated axonal repulsion [3]: No attenuation
- explants survived ([3]; repulsion assay, n=4): 4 out of 12

B1: Unc5, Drosophila (receptor, UniProt Q95TU8 31-1072, looked up)
chain: ELPQLDYGSLSASLEEDAIDPLTAMAPFANSLVTEESAQHKNNAELLGNSSEDENVRPQQGSSSSGLGSSGAAGGSGILLEEFNSGKLSPGEASNTLPIFLIEPESVFVVKNRPAVLKCKASHSLQVIFKCSGSSQPPPSTHETHVDPHTGVNMEEVTATIHRDLVDEFFGDGPFKCECHAWSSRGVVKSQAATVHIAYIRKSFNQSPTSLRLELGSRAELRCEPPGGFPEPKLTWHKNNAVITADSEPGITVSAGTLIFRQVALQHMANYSCSAENIAGRRVSDSAVLIVYVNGGWSTWSPWRECKCAGKPSQGRKRSRTCNNPMPLNGGAQCPGPQIQKSADCAACPEDTQIVSPDGFDISSSKRMARWSAWSDWSICSAECIQVRRRKCLTQGQTQISSEAEEAGDLLLGAPGVGMAALIAAAGVGAVGSPSEATGSSSDIIPGYGKSLCAGKDIQTAECRGEQCQIGKDDFDWTLYLGLAFITAVCFAFGTALICCARRGIRTNPHYNMARSVMDADYMPGVVEKKEMRMHIEASNMGYDYVNPGHRYLPGEHIMGMGIGCGGVTEHHYDVPNLSANYTNPIDHLSVDYLSETGESSTADTSNSTFDMNGKLSILNASKSSTYEMLGSAGGQLRLYGGELLLFVPEHAIGKHVKKHVSLLLLSDECSRVSCATESSILCSSVVHSAPRNYSFVKPVILKIPHCLVAPEQWHVHIYHADSEHDELSVNWRRAVSVGEETINTPMFVQLEATHVFIMTEQLGHFTVVAEPRIQQPSIKMKLLAFSQHTPPSNANCSLRIYVVKDFPNSRDICANVEAKLGGSFLGESQVFAFTLNSRNLNIRVRSADVEAAAPYEHAIPYQHILSNNSILHCEFSLRRQDQNSLCVDFGQGSEDDYYTFNIPAHSMSGSAEELASTTNTTISIDRQGNYVNESCVMDFVQLPHATKRLICGALDPPRADERDWRLLAKKLNTDRYIAYFATKASPTEQILNLWECRANSSPGSSSNSVSHTIMALLLTLKEMGRQDVLDIIVETIGPLWI
notes: Specificity control in the co-immunoprecipitation
- binding result [6]: no binding
